Reference: ChEMBL document CHEMBL4651402, “Screening of ~5500 FDA-approved drugs and clinical candidates for anti-SARS-CoV-2 activity” (2021)
Structures can show the parent of a compound that is named as a salt.

Test system: SARS-CoV-2
Assay: microbe, parasite or virus in culture
Conditions: Severe acute respiratory syndrome coronavirus 2, Vero C1008, 48 h

| SMILES | IC50 | IC50 (read-out: pIC50 (converted)) |
| --- | --- | --- |
| CO[C@H]1/C=C/O[C@@]2(C)Oc3c(C)c(O)c4c(O)c(c(/C=N/N5CCN(C)CC5)c(O)c4c3C2=O)NC(=O)/C(C)=C\C=C\[C@H](C)[C@H](O)[C@@H](C)[C@@H](O)[C@@H](C)[C@H](OC(C)=O)[C@@H]1C [RIFAMPIN] | > 20 µM | > 20 µM |
| COc1cc(OC)c(/C=C/S(=O)(=O)Cc2ccc(OC)c(NCC(=O)O)c2)c(OC)c1 [RIGOSERTIB] | > 20 µM | > 20 µM |
| CN1CCN(C2=Cc3cc(Cl)ccc3/C(=C/C#N)c3ccccc32)CC1 [RILAPINE] | > 20 µM | > 20 µM |
| CS(=O)(=O)CCCn1c(Cn2c(=O)n(CC(F)(F)F)c3ccncc32)cc2cc(Cl)ccc21 [RILEMATOVIR] | > 20 µM | > 20 µM |
| C1COC(NC(C2CC2)C2CC2)=N1 [RILMENIDINE] | > 20 µM | > 20 µM |
| Nc1nc2ccc(OC(F)(F)F)cc2s1 [RILUZOLE] | > 20 µM | > 20 µM |
| CC(N)C12CC3CC(CC(C3)C1)C2 (stereo not given) [RIMANTADINE] | > 20 µM | > 20 µM |
| N[C@@H]1c2cccnc2[C@H](OC(=O)N2CCC(n3c(=O)[nH]c4ncccc43)CC2)CC[C@H]1c1cccc(F)c1F [RIMEGEPANT] | > 20 µM | > 20 µM |
| CCC(=O)[C@@]1(C)[C@H](C)C[C@H]2[C@@H]3CCC4=CC(=O)C=C[C@]4(C)[C@H]3[C@@H](O)C[C@@]21C [RIMEXOLONE] | > 20 µM | > 20 µM |
| Oc1ccc(C(O)C2CCCCN2)cc1O (stereo not given) [RIMITEROL] | > 20 µM | > 20 µM |
| Cc1c(C(=O)NN2CCCCC2)nn(-c2ccc(Cl)cc2Cl)c1-c1ccc(Cl)cc1 [RIMONABANT] | > 20 µM | > 20 µM |
| O=P(O)(O)C(O)(Cc1cccnc1)P(=O)(O)O [RISEDRONIC ACID] | > 20 µM | > 20 µM |
| Cc1ccc(COC(=O)N2CC[C@H](CNc3ncccn3)[C@H](F)C2)cc1 [RISLENEMDAZ] | > 20 µM | > 20 µM |
| CCCOC(=O)c1ccc(N)cc1 [RISOCAINE] | > 20 µM | > 20 µM |
| Cc1nc2n(c(=O)c1CCN1CCC(c3noc4cc(F)ccc34)CC1)CCCC2 [RISPERIDONE] | > 20 µM | > 20 µM |
| Cc1nc2sccn2c(=O)c1CCN1CCC(=C(c2ccc(F)cc2)c2ccc(F)cc2)CC1 [RITANSERIN] | > 20 µM | > 20 µM |
| C=CC(=O)N1C[C@H](Nc2ncnc3[nH]ccc23)CC[C@@H]1C [RITLECITINIB] | > 20 µM | > 20 µM |
| CC(NCCc1ccc(O)cc1)C(O)c1ccc(O)cc1 (stereo not given) [RITODRINE HYDROCHLORIDE] | > 20 µM | > 20 µM |

| SMILES | IC50 | IC50 (read-out: pIC50 (converted)) |
| --- | --- | --- |
| CC(C)c1nc(CN(C)C(=O)N[C@H](C(=O)N[C@@H](Cc2ccccc2)C[C@H](O)[C@H](Cc2ccccc2)NC(=O)OCc2cncs2)C(C)C)cs1 [RITONAVIR] | > 50.1 µM | > 50.1 µM |
| CCN(C)C(=O)Oc1cccc([C@H](C)N(C)C)c1 [RIVASTIGMINE] | > 20 µM | > 20 µM |
| COCc1cccc(C[C@H](O)/C=C/[C@H]2[C@H](O)CC(=O)[C@@H]2CCSCCCC(=O)OC)c1 [RIVENPROST] | > 20 µM | > 20 µM |
| N#CC1(c2ccc(NC(=O)c3cccnc3NCc3ccncc3)cc2)CCCC1 [RIVOCERANIB] | > 20 µM | > 20 µM |
| CN(C)CCc1c[nH]c2ccc(Cn3cncn3)cc12 [RIZATRIPTAN] | > 20 µM | > 20 µM |
| [N-]=[N+]=N[C@]1(CO)O[C@@H](n2ccc(N)nc2=O)[C@@H](F)[C@@H]1O [RO-0622] | > 20 µM | > 20 µM |
| CCCCOc1cc(CC2CNC(=O)N2)ccc1OC (stereo not given) [RO-201724] | > 20 µM | > 20 µM |
| C=CC(=O)Nc1cccc(Nc2nc(Nc3ccc(N4CCN(C(C)=O)CC4)cc3OC)ncc2C(F)(F)F)c1 [ROCILETINIB] | > 20 µM | > 20 µM |
| CS(=O)(=O)c1ccc(C2=C(c3ccccc3)C(=O)OC2)cc1 [ROFECOXIB] | > 20 µM | > 20 µM |
| O=C(Nc1c(Cl)cncc1Cl)c1ccc(OC(F)F)c(OCC2CC2)c1 [ROFLUMILAST] | > 20 µM | > 20 µM |
| COCc1c(-c2cc3cc(C)cc(OC)c3s2)c2c(N)ncnn2c1CN1CCNC(=O)C1 [ROGARATINIB] | > 20 µM | > 20 µM |
| C[C@@H](OC[C@@]1(c2ccccc2)CC[C@]2(CCC(=O)N2)CN1)c1cc(C(F)(F)F)cc(C(F)(F)F)c1 [ROLAPITANT] | > 20 µM | > 20 µM |
| COc1ccc(C2CNC(=O)C2)cc1OC1CCCC1 (stereo not given) [ROLIPRAM] | > 20 µM | > 20 µM |
| Cn1c([N+](=O)[O-])cnc1COC(N)=O [RONIDAZOLE] | > 20 µM | > 20 µM |
| CCCN(CCC)CCc1cccc2c1CC(=O)N2 [ROPINIROLE] | > 20 µM | > 20 µM |
| CN(C(=O)c1c(O)c2ccccc2n(C)c1=O)c1ccccc1 [ROQUINIMEX] | > 20 µM | > 20 µM |
| CN(CCOc1ccc(CC2SC(=O)NC2=O)cc1)c1ccccn1 (stereo not given) [ROSIGLITAZONE] | > 20 µM | > 20 µM |
